Measurements taken from publication PMC11432087, “Hydrogen Sulfide-Releasing Carbonic Anhydrase Inhibitors Effectively Suppress Cancer Cell Growth” (International Journal of Molecular Sciences, 2024).
Where two headings read alike, the source gives them in different places.

Key:
hCA I = details: stopped-flow CO2 hydrase assay, mean of three assays; cited from earlier work
hCA II = details: stopped-flow CO2 hydrase assay, mean of three assays; cited from earlier work
hCA IV = details: stopped-flow CO2 hydrase assay, mean of three assays; cited from earlier work
hCA IX [1] = details: stopped-flow CO2 hydrase assay, mean of three assays; cited from earlier work
hCA XII [2] = details: stopped-flow CO2 hydrase assay, mean of three assays; cited from earlier work
hCA IX [3] = assay: Stopped-flow CO2 hydrase inhibition assay, hCA IX; assay type: biochemical, human; details: ratio of KIs
Procedure: (§1) An Applied Photophysics stopped-flow instrument (Applied Photophysics Ltd, Leatherhead, UK) was used for assaying the CA-catalyzed CO2 hydration activity. Phenol red (at a concentration of 0.2 mM) was used as an indicator, working at the absorbance maximum of 557 nm, with 20 mM Hepes (pH 7.5) as a buffer and 20 mM Na2SO4 for maintaining constant the ionic strength, following the initial rates of the CA-catalyzed CO2 hydration reaction for a period of 10−100 s. The CO2 concentrations ranged from 1.7 to 17 mM for the determination of the kinetic parameters and inhibition constants. For each inhibitor, at least six traces of the initial 5−10% of the reaction were used for determining the initial velocity. The uncatalyzed rates were determined in the same manner and subtracted from the total observed rates. Stock solutions of inhibitor (0.1 mM) were prepared in distilled−deionized water and dilutions up to 0.01 nM were made thereafter with the assay buffer. Inhibitor and enzyme solutions were preincubated together for 15 min at room temperature before the assay to allow for the formation of the E−I complex. The inhibition constants were obtained by nonlinear least-squares methods using Prism 7 (GraphPad Software, La Jolla, CA, USA) and the Cheng−Prusoff equation and represent the mean of at least three different determinations. The enzyme concentrations were in the range of 3–11 nM. All hCA isoforms were recombinant ones obtained in-house.

hCA XII [4] = assay: Stopped-flow CO2 hydrase inhibition assay, hCA XII; assay type: biochemical, human; details: ratio of KIs
Procedure: as §1

MDA-MB-231 = assay: MTT antiproliferative assay, MDA-MB-231; assay type: cell-based; details: Homo sapiens, normoxic conditions, 72 h
Procedure: (§2) These cell lines were cultured as monolayers in Dulbecco’s Modified Eagle’s Medium (DMEM) supplemented with 10% FBS, 2 mM l-glutamine, 100 U/mL penicillin, and 100 µg/mL streptomycin sulfate. […] The cells were sub-cultured using trypsin/EDTA solution, counted with a hemocytometer, and plated on 96-well plates (5000 cells/well), allowing them to form a semi-confluent monolayer overnight. […] DMSO (100 µL/well) was then added to dissolve the formazan crystals with shaking for 10 min, after which the absorb absorbance was read at 590 nm against no-cell blanks using a FLuo Star Optima microplate reader (BMG technologies, Ortenberg, Germany). Cell proliferation was calculated by comparing the OD values of the DMSO control wells with those of the samples, represented as % proliferation relative to the control.

HCT-116 [5] = assay: MTT antiproliferative assay, HCT-116 (normoxia and CoCl2-induced hypoxia); assay type: cell-based, human; details: HCT-116; for IC50: Homo sapiens, MTT, 72 h
Procedure: as §2

A549 [6] = assay: MTT antiproliferative assay, A549; assay type: cell-based; details: Homo sapiens, normoxic conditions, 72 h
Procedure: The human triple-negative breast cancer cell line (MDA-MB-231), colon cancer cell line (HCT-116), and lung cancer cell line (A549) used in this study were obtained from the American Type Culture Collection (ATCC). These cell lines were cultured as monolayers in Dulbecco’s Modified Eagle’s Medium (DMEM) supplemented with 10% FBS, 2 mM l-glutamine, 100 U/mL penicillin, and 100 µg/mL streptomycin sulfate. […] The cells were sub-cultured using trypsin/EDTA solution, counted with a hemocytometer, and plated on 96-well plates (5000 cells/well), allowing them to form a semi-confluent monolayer overnight. […]. DMSO (100 µL/well) was then added to dissolve the formazan crystals with shaking for 10 min, after which the absorb absorbance was read at 590 nm against no-cell blanks using a FLuo Star Optima microplate reader (BMG technologies, Ortenberg, Germany). Cell proliferation was calculated by comparing the OD values of the DMSO control wells with those of the samples, represented as % proliferation relative to the control.

HCT-116 [7] = assay: Cell cycle analysis by DNA flow cytometry, HCT-116; assay type: cell-based, human; details: HCT-116, 24 h at IC50 concentration
Procedure: (§3) Following treatment, cells were washed twice with ice-cold phosphate-buffered saline (PBS). Subsequently, the treated cells were harvested through centrifugation, fixed in ice-cold 70% (v/v) ethanol, washed with PBS, re-suspended in 100 μg/mL RNase, stained with 40 μg/mL propidium iodide (PI), and subjected to flow cytometry analysis using FACS Calibur (Becton Dickinson, Franklin Lakes, NJ, USA). The cell cycle distributions were calculated using CellQuest software 5.1 (Becton Dickinson).

A549 [8] = assay: Cell cycle analysis by DNA flow cytometry, A549; assay type: cell-based, human; details: A549, 24 h at IC50 concentration
Procedure: as §3

HCT-116 [9] = assay: Annexin V-FITC/PI dual staining apoptosis assay, HCT-116; assay type: cell-based, human; details: for Fold increase in overall apoptosis compared to untreated control: HCT-116; for Early Apoptosis (Lower Right %) / Late Apoptosis (Upper Right %) / Total apoptosis: HCT-116, treated at IC50 concentration
Procedure: (§4) Phosphatidylserine externalization was evaluated using the Annexin V-FITC/PI apoptosis detection kit (BD Biosciences, USA), following the manufacturer’s guidelines. […] Subsequently, the cells were re-suspended in 100 μL of binding buffer with the addition of 1 μL of FITC-Annexin V, followed by a 30-min incubation at 4 °C. After rinsing in binding buffer, the cells were resuspended in 150 μL of binding buffer with the addition of 1 μL of DAPI (1 μg/μL in PBS). Flow cytometry analysis was performed using the BD FACS Canto II flow cytometer and the results were interpreted with FlowJo7.6.4 software (Tree Star, Ashland, USA).

A549 [10] = assay: Annexin V-FITC/PI dual staining apoptosis assay, A549; assay type: cell-based, human; details: for Fold increase in overall apoptosis compared to untreated control: A549; for Early Apoptosis (Lower Right %) / Late Apoptosis (Upper Right %) / Total apoptosis: A549, treated at IC50 concentration
Procedure: as §4

[11] = compound 150 µM, rat liver homogenate, 37 °C; cited from earlier work
[12] = chemically induced hypoxia with CoCl2·6H2O, read-out: IC50 HCT-116 (Hypoxia)
[13] = normoxic conditions, read-out: IC50 HCT-116 (Normoxia)

NS(=O)(=O)c1ccc(CCN(Cc2ccccc2)C(=O)c2ccc(-c3cssc3=S)cc2)cc1 [Compound 19]
Ki (hCA I): 0.771 µM | Ki (hCA II): 0.48 µM | Ki (hCA IV): 4.34 µM | Ki (hCA IX [1]): 0.043 µM | Ki (hCA XII [2]): 0.0097 µM

NS(=O)(=O)c1ccc(CCN(Cc2ccc(F)cc2)C(=O)c2ccc(-c3cssc3=S)cc2)cc1 [Compound 20]
Ki (hCA I): 5.32 µM | Ki (hCA II): 0.6 µM | Ki (hCA IV): > 10 µM | Ki (hCA IX [1]): 0.0463 µM | Ki (hCA XII [2]): 0.0653 µM

NS(=O)(=O)c1ccc(CCN(Cc2ccc(Cl)cc2)C(=O)c2ccc(-c3cssc3=S)cc2)cc1 [Compound 21]
Ki (hCA I): 5.5 µM | Ki (hCA II): 2.97 µM | Ki (hCA IV): 0.43 µM | Ki (hCA IX [1]): 0.024 µM | Ki (hCA XII [2]): 0.0098 µM

N#Cc1ccc(CN(CCc2ccc(S(N)(=O)=O)cc2)C(=O)c2ccc(-c3cssc3=S)cc2)cc1 [Compound 23]
hCA II/hCA IX selectivity ratio (hCA IX [3]): 120 | hCA II/hCA XII selectivity ratio (hCA XII [4]): 548 | IC50 (MDA-MB-231): 1.53 ± 0.04 µM | IC50 Normoxia / IC50 Hypoxia (HCT-116 [5]): 0.3 | IC50 (HCT-116 [5]; [12]): 4.27 ± 0.08 µM | IC50 (HCT-116 [5]; [13]): 1.24 ± 0.04 µM | IC50 (A549 [6]): 4.53 ± 0.12 µM | %G0-G1 (HCT-116 [7]): 20.35% | %G2/M (HCT-116 [7]): 32.2% | %S (HCT-116 [7]): 23.29% | %Sub-G1 (HCT-116 [7]): 24.16% | %G0-G1 (A549 [8]): 29.65% | %G2/M (A549 [8]): 28.09% | %S (A549 [8]): 26.28% | %Sub-G1 (A549 [8]): 15.98% | Fold increase in overall apoptosis compared to untreated control (HCT-116 [9]): 37.2 fold | Early Apoptosis (Lower Right %) (HCT-116 [9]): 7.69% | Late Apoptosis (Upper Right %) (HCT-116 [9]): 21.33% | Total apoptosis (HCT-116 [9]): 29.02% | Fold increase in overall apoptosis compared to untreated control (A549 [10]): 14.2 fold | Early Apoptosis (Lower Right %) (A549 [10]): 6.91% | Late Apoptosis (Upper Right %) (A549 [10]): 10.13% | Total apoptosis (A549 [10]): 17.04% | Ki (hCA I): > 10 µM | Ki (hCA II): 4.83 µM | Ki (hCA IX [1]): 0.0403 µM | Ki (hCA XII [2]): 0.0088 µM

CN(C)c1ccc(CN(CCc2ccc(S(N)(=O)=O)cc2)C(=O)c2ccc(-c3cssc3=S)cc2)cc1 [Compound 24]
Ki (hCA I): 4.26 µM | Ki (hCA II): 0.995 µM | Ki (hCA IV): 3.41 µM | Ki (hCA IX [1]): 0.0227 µM | Ki (hCA XII [2]): 0.0095 µM

NS(=O)(=O)c1ccc(CCN(Cc2ccc([N+](=O)[O-])cc2)C(=O)c2ccc(-c3cssc3=S)cc2)cc1 [Compound 25]
Ki (hCA I): 7.45 µM | Ki (hCA II): 0.919 µM | Ki (hCA IV): > 10 µM | Ki (hCA IX [1]): 0.0366 µM | Ki (hCA XII [2]): 0.0329 µM

COc1cc([N+](=O)[O-])ccc1CN(CCc1ccc(S(N)(=O)=O)cc1)C(=O)c1ccc(-c2cssc2=S)cc1 [Compound 26]
hCA II/hCA IX selectivity ratio (hCA IX [3]): 719 | hCA II/hCA XII selectivity ratio (hCA XII [4]): 383 | IC50 (MDA-MB-231): 10.4 ± 0.61 µM | IC50 Normoxia / IC50 Hypoxia (HCT-116 [5]): 0.6 | IC50 (HCT-116 [5]; [12]): 3.73 ± 0.07 µM | IC50 (HCT-116 [5]; [13]): 2.3 ± 0.072 µM | IC50 (A549 [6]): 7.47 ± 0.31 µM | %G0-G1 (HCT-116 [7]): 27.14% | %G2/M (HCT-116 [7]): 30.29% | %S (HCT-116 [7]): 24.13% | %Sub-G1 (HCT-116 [7]): 18.44% | %G0-G1 (A549 [8]): 29.49% | %G2/M (A549 [8]): 33.05% | %S (A549 [8]): 22.54% | %Sub-G1 (A549 [8]): 14.92% | Fold increase in overall apoptosis compared to untreated control (HCT-116 [9]): 24.5 fold | Early Apoptosis (Lower Right %) (HCT-116 [9]): 4.13% | Late Apoptosis (Upper Right %) (HCT-116 [9]): 14.96% | Total apoptosis (HCT-116 [9]): 19.09% | Fold increase in overall apoptosis compared to untreated control (A549 [10]): 13.1 fold | Early Apoptosis (Lower Right %) (A549 [10]): 6.47% | Late Apoptosis (Upper Right %) (A549 [10]): 9.3% | Total apoptosis (A549 [10]): 15.77% | Ki (hCA I): 6.7 µM | Ki (hCA II): 2.95 µM | Ki (hCA IV): 4.09 µM | Ki (hCA IX [1]): 0.0041 µM | Ki (hCA XII [2]): 0.0077 µM | H2S release half-life t/2 [11]: 4.9 min
